BigSolDB 2.1

CCC(CO)(CO)C(=O)O
solubility (mole fraction) (in 1,4-dioxane, 298.15 K): 0.122 | solubility (mole fraction) (in 1,4-dioxane, 303.15 K): 0.153 | solubility (mole fraction) (in 1,4-dioxane, 308.15 K): 0.176 | solubility (mole fraction) (in 1,4-dioxane, 313.15 K): 0.201 | solubility (mole fraction) (in 1,4-dioxane, 318.15 K): 0.217 | solubility (mole fraction) (in 1,4-dioxane, 323.15 K): 0.259 | solubility (mole fraction) (in 1,4-dioxane, 328.15 K): 0.324 | solubility (mole fraction) (in MIBK, 298.15 K): 0.0218 | solubility (mole fraction) (in MIBK, 303.15 K): 0.0297 | solubility (mole fraction) (in MIBK, 308.15 K): 0.0362 | solubility (mole fraction) (in MIBK, 313.15 K): 0.0433 | solubility (mole fraction) (in MIBK, 318.15 K): 0.0523 | solubility (mole fraction) (in MIBK, 323.15 K): 0.0575 | solubility (mole fraction) (in MIBK, 328.15 K): 0.07 | solubility (mole fraction) (in MIBK, 333.15 K): 0.077 | solubility (mole fraction) (in MIBK, 338.15 K): 0.0891 | solubility (mole fraction) (in MIBK, 343.15 K): 0.11 | solubility (mole fraction) (in MIBK, 345.15 K): 0.121 | solubility (mole fraction) (in MIBK, 348.15 K): 0.132 | solubility (mole fraction) (in MIBK, 350.15 K): 0.156 | solubility (mole fraction) (in MIBK, 353.15 K): 0.184 | solubility (mole fraction) (in cyclopentyl methyl ether, 298.15 K): 0.0121 | solubility (mole fraction) (in cyclopentyl methyl ether, 303.15 K): 0.013 | solubility (mole fraction) (in cyclopentyl methyl ether, 308.15 K): 0.0168 | solubility (mole fraction) (in cyclopentyl methyl ether, 313.15 K): 0.0208 | solubility (mole fraction) (in cyclopentyl methyl ether, 318.15 K): 0.0266 | solubility (mole fraction) (in cyclopentyl methyl ether, 323.15 K): 0.032 | solubility (mole fraction) (in cyclopentyl methyl ether, 328.15 K): 0.0374 | solubility (mole fraction) (in cyclopentyl methyl ether, 333.15 K): 0.0425 | solubility (mole fraction) (in cyclopentyl methyl ether, 338.15 K): 0.054 | solubility (mole fraction) (in cyclopentyl methyl ether, 343.15 K): 0.0674 | solubility (mole fraction) (in cyclopentyl methyl ether, 345.15 K): 0.0749 | solubility (mole fraction) (in cyclopentyl methyl ether, 348.15 K): 0.0917 | solubility (mole fraction) (in cyclopentyl methyl ether, 350.15 K): 0.107 | solubility (mole fraction) (in cyclopentyl methyl ether, 353.15 K): 0.133 | solubility (mole fraction) (in ethyl acetate, 298.15 K): 0.0111 | solubility (mole fraction) (in ethyl acetate, 303.15 K): 0.0184 | solubility (mole fraction) (in ethyl acetate, 308.15 K): 0.0228 | solubility (mole fraction) (in ethyl acetate, 313.15 K): 0.0281 | solubility (mole fraction) (in ethyl acetate, 318.15 K): 0.0338 | solubility (mole fraction) (in ethyl acetate, 323.15 K): 0.0443 | solubility (mole fraction) (in ethyl acetate, 328.15 K): 0.0539 | solubility (mole fraction) (in ethyl acetate, 333.15 K): 0.0612 | solubility (mole fraction) (in ethyl acetate, 338.15 K): 0.069 | solubility (mole fraction) (in gamma-butyrolactone, 298.15 K): 0.0688 | solubility (mole fraction) (in gamma-butyrolactone, 303.15 K): 0.0859 | solubility (mole fraction) (in gamma-butyrolactone, 308.15 K): 0.105 | solubility (mole fraction) (in gamma-butyrolactone, 313.15 K): 0.136 | solubility (mole fraction) (in gamma-butyrolactone, 318.15 K): 0.151 | solubility (mole fraction) (in gamma-butyrolactone, 323.15 K): 0.173 | solubility (mole fraction) (in gamma-butyrolactone, 328.15 K): 0.212 | solubility (mole fraction) (in gamma-butyrolactone, 333.15 K): 0.232 | solubility (mole fraction) (in gamma-butyrolactone, 338.15 K): 0.263 | solubility (mole fraction) (in n-butyl acetate, 298.15 K): 0.0119 | solubility (mole fraction) (in n-butyl acetate, 303.15 K): 0.0125 | solubility (mole fraction) (in n-butyl acetate, 308.15 K): 0.0129 | solubility (mole fraction) (in n-butyl acetate, 313.15 K): 0.0153 | solubility (mole fraction) (in n-butyl acetate, 318.15 K): 0.0228 | solubility (mole fraction) (in n-butyl acetate, 323.15 K): 0.0317 | solubility (mole fraction) (in n-butyl acetate, 328.15 K): 0.0379 | solubility (mole fraction) (in n-butyl acetate, 333.15 K): 0.0477 | solubility (mole fraction) (in n-butyl acetate, 338.15 K): 0.0619 | solubility (mole fraction) (in n-butyl acetate, 343.15 K): 0.0768 | solubility (mole fraction) (in n-butyl acetate, 345.15 K): 0.093 | solubility (mole fraction) (in n-butyl acetate, 348.15 K): 0.111 | solubility (mole fraction) (in n-butyl acetate, 350.15 K): 0.132 | solubility (mole fraction) (in n-butyl acetate, 353.15 K): 0.169 | solubility (mole fraction) (in toluene, 298.15 K): 0.00039 | solubility (mole fraction) (in toluene, 303.15 K): 0.00056 | solubility (mole fraction) (in toluene, 308.15 K): 0.00073 | solubility (mole fraction) (in toluene, 313.15 K): 0.0008 | solubility (mole fraction) (in toluene, 318.15 K): 0.00087 | solubility (mole fraction) (in toluene, 323.15 K): 0.00093 | solubility (mole fraction) (in toluene, 328.15 K): 0.00093 | solubility (mole fraction) (in toluene, 333.15 K): 0.00099 | solubility (mole fraction) (in toluene, 338.15 K): 0.00105
